Measured values as given in patent US11242337B2, “Compounds useful for treating gastrointestinal tract disorders” (Ardelyx, Inc., priority 2017, dated 2022).
Where two headings read alike, the source gives them in different places.

Tests used:
[1] = tested on: human ileum monolayer culture; assay: Sustained inhibition of apical acid secretion in human organoid monolayer cell cultures (ileum); type: cell-based; conditions: 1 μM apical, dosed day 6, apical media pH day 8, vs DMSO; for inhibition at 1 µM: Homo sapiens, 48 h
Method: Basal media (BM) consisted of advanced DMEM/F12 containing 10 mM HEPES Invitrogen, 15630-080), 1:100 Glutamax (Invitrogen, 35050-061), and 1:100 penicillin/streptomycin (Invitrogen, 15140-122). Supplemented basal media (SBM) contained 1:100 N2 (Invitrogen, 17502-048), 1:50 B27 (Invitrogen, 12587-010), 1 mM N-acetylcysteine (Sigma, A9165), and 10 nM [Leu15]-gastrin I (Sigma, G9145). Growth factors used included 50 ng per mL mouse EGF (Peprotech, 315-09), 100 ng per mL mouse noggin (Peprotech, 250-38), 500 ng per mL human R-spondin 1 (R&D, 4645-RS), 100 ng per mL mouse Wnt-3a (R&D, 1324-WN), 20 μM. Y-27632 (Tocris, 1254), 10 mM nicotinamide (Sigma, N0636), 500 nM A83-01 (Tocris, 2939), 10 μM SB202190 (Tocris, 1264). Transwells were 0.4 μm pore polyester membrane 24-well Transwell inserts (Corning). Cultures were incubated at 37° C. in 5% CO2.
Human ileum organoids were cultured in WENRNAS (Wnt, EGF, noggin, R-spondin1, Nicotinamide, A83-01, SB202190) and typically grown for 7-12 days before being used to plate monolayer cultures. On day 0, organoid cultures embedded in Matrigel were treated with TrypLE Express to break organoids into small pieces and/or single cells. The cells were resuspended to 0.5×10^6 cells/mL in SBM containing WENRAY (Wnt, EGF, noggin, R-spondin1, A83-01, Y-27632). Following this step, 200 μL of cell suspension was plated into the apical side of a 24-well Transwell (100,000 cells/well) and 600 μL of SBM with WENRAY was added to the basolateral side. Ileum cells were differentiated with ENRA (EGF, noggin, R-spondin 1, A83-01) on day 3. The color of apical compartment turns from pink or orange to yellow due to the increase in NHE3 expression after differentiation.
Each human ileum monolayer culture well was washed twice with fresh SBM on the apical side on day 6 before compound dosing. All compound stocks were 10 mM dissolved in DMSO. Each compound stock was individually mixed with fresh SBM to reach final compound concentration 1 μM and dosed only on the apical side of the monolayer (total volume 200 μl). DMSO at the equivalent concentration was used as the vehicle control. Duplicate wells were dosed for each compound. On day 8, apical media pH was measured by pH electrode, to determine the ability of example compounds to produce sustained inhibition of NHE3 activity in a human monolayer culture system by preventing proton secretion into the apical compartment.

[2] = tested on: absorption of sodium from the intestinal lumen; assay: Inhibition of intestinal sodium absorption in mice; type: in vivo; conditions: CD-1 mice, 15 mg/kg oral gavage twice daily; for Fecal fluid content (Δ from vehicle): day 3, change from vehicle group mean; for response vs control in vivo at 15 mg/kg: Mus musculus, 72 h
Summary of the method: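 Male ~8-week CD-1 mice on chow with added 0.4% inorganic phosphorous, in metabolic cages after 3-day acclimation and 24-hr baseline collection. Urine sodium by ion chromatography, dried fecal sodium by MP-AES; day-3 24-hour excretion normalized to dietary sodium intake and expressed as % of vehicle mean; diarrhea and fecal fluid also recorded.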

[3] = day 3, normalized to dietary sodium intake, read-out: Fecal Na Excretion (% of vehicle)
[4] = day 3, normalized to dietary sodium intake, read-out: Urinary Na Excretion (% of vehicle)
[5] = day 3, normalized to dietary sodium intake

Row | Compound | inhibition at 1 µM [1] [%] | Fecal fluid content (Δ from vehicle) [2] | response vs control in vivo at 15 mg/kg [2, 3] [%] | response vs control in vivo at 15 mg/kg [2, 4] [%] | % inhibition (ileum) [1] | Fecal Na Excretion (% of vehicle) [2, 5] | Urinary Na Excretion (% of vehicle) [2, 5]
1 | Cc1cc(Cl)cc2c1C[C@H](N1CCC[C@@H](N(C)C)C1)[C@H]2Oc1ccc(S(=O)(=O)NCCOCCOCCNC(=O)NCCCCNC(=O)NCCOCCOCCNS(=O)(=O)c2ccc(O[C@H]3c4cc(Cl)cc(C)c4C[C@@H]3N3CCC[C@@H](N(C)C)C3)cc2)cc1 [Example 28, 3-[2-(2-[2-[(4-[[(1S,2S)-6-Chloro-2-[(3R)-3-(dimethylamino)piperidin-1-yl]-4-methyl-2,3-dihydro-1H-inden-1-yl]oxy]benzene)sulfonamido]ethoxy]ethoxy)ethyl]-1-[4-([[2-(2-[2-[(4-[[(1S,2S)-6-chloro-2-[(3R)-3-(dimethylamino)piperidin-1-yl]-4-methyl-2,3-dihydro-1H-inden-1-yl]oxy]benzene)sulfonamido]ethoxy]ethoxy)ethyl]carbamoyl]amino)butyl]urea; bis(trifluoroacetic acid)] | 50 to 70 | B (5-10) | 150 to 200 | > 70 | – | – | –
2 | Cc1cc(S(=O)(=O)NCCOCCOCCNC(=O)NCCCCNC(=O)NCCOCCOCCNS(=O)(=O)c2ccc(O[C@H]3c4cc(Cl)cc(C#N)c4C[C@@H]3N3CCNCC3)c(C)c2)ccc1O[C@H]1c2cc(Cl)cc(C#N)c2C[C@@H]1N1CCNCC1 [Example 42, 3-[2-(2-[2-[(4-[[(1S,2S)-6-Chloro-4-cyano-2-(piperazin-1-yl)-2,3-dihydro-1H-inden-1-yl]oxy]-3-methylbenzene)sulfonamido]ethoxy]ethoxy)ethyl]-1-[4-([[2-(2-[2-[(4-[[(1S,2S)-6-chloro-4-cyano-2-(piperazin-1-yl)-2,3-dihydro-1H-inden-1-yl]oxy]-3-methylbenzene)sulfonamido]ethoxy]ethoxy)ethyl]carbamoyl]amino)butyl]urea; bis(trifluoroacetic acid)] | > 70 | B (5-10) | 150 to 200 | < 50 | – | – | –
3 | 3-[2-(2-[2-[(4-[[(1S,2S)-4,6-Dichloro-2-[(3R)-3-[methyl(propan-2-yl)amino]piperidin-1-yl]-2,3-dihydro-1H-inden-1-yl]oxy]benzene) sulfonamido]ethoxy]ethoxy)ethyl]-1-[4-([[2-(2-[2-[(4-[[(1S,2S)-4,6-dichloro-2-[(3R)-3-[methyl(propan-2-yl)amino]piperidin-1-yl]-2,3-dihydro-1H-inden-1-yl]oxy]benzene)sulfonamido]ethoxy]ethoxy)ethyl]carbamoyl]amino)butyl]urea; bis(trifluoroacetic acid) [Example 78] | – | A (<5) | – | – | C (>70%) | A (<150%) | A (>70%)
4 | Cc1cc(S(=O)(=O)NCCOCCOCCNC(=O)NCCCCNC(=O)NCCOCCOCCNS(=O)(=O)c2ccc(O[C@H]3c4cc(Cl)cc(C)c4C[C@@H]3N3CCC[C@@H](N(C)C)C3)c(C)c2)ccc1O[C@H]1c2cc(Cl)cc(C)c2C[C@@H]1N1CCC[C@@H](N(C)C)C1 [Example 29] | > 70 | A (<5) | 150 to 200 | 50 to 70 | – | – | –
5 | Cc1cc(Cl)cc2c1C[C@H](N(C)C)[C@H]2Oc1ccc(S(=O)(=O)NCCOCCOCCNC(=O)NCCCCNC(=O)NCCOCCOCCNS(=O)(=O)c2ccc(O[C@H]3c4cc(Cl)cc(C)c4C[C@@H]3N(C)C)c(F)c2)cc1F [Example 24, 3-[2-(2-[2-[(4-[[(1S,2S)-6-Chloro-2-(dimethylamino)-4-methyl-2,3-dihydro-1H-inden-1-yl]oxy]-3-fluorobenzene)sulfonamido]ethoxy]ethoxy)ethyl]-1-[4-([[2-(2-[2-[(4-[[(1S,2S)-6-chloro-2-(dimethylamino)-4-methyl-2,3-dihydro-1H-inden-1-yl]oxy]-3-fluorobenzene)sulfonamido]ethoxy]ethoxy)ethyl]carbamoyl]amino)butyl]urea] | < 50 | A (<5) | > 200 | 50 to 70 | – | – | –
6 | Cc1cc(S(=O)(=O)N2CC[C@@H](COc3ccnc(CNC(=O)NCCCCNC(=O)NCc4cc(OC[C@@H]5CCN(S(=O)(=O)c6ccc(O[C@H]7c8cc(Cl)cc(Cl)c8C[C@@H]7N(C)C)c(C)c6)C5)ccn4)c3)C2)ccc1O[C@H]1c2cc(Cl)cc(Cl)c2C[C@@H]1N(C)C [Example 49, 3-[(4-[[(3R)-1-[(4-[[(1S,2S)-4,6-Dichloro-2-(dimethylamino)-2,3-dihydro-1H-inden-1-yl]oxy]-3-methylbenzene)sulfonyl]pyrrolidin-3-yl]methoxy]pyridin-2-yl)methyl]-1-[4-([[(4-[[(3R)-1-[(4-[[(1S,2S)-4,6-dichloro-2-(dimethylamino)-2,3-dihydro-1H-inden-1-yl]oxy]-3-methylbenzene)sulfonyl]pyrrolidin-3-yl]methoxy]pyridin-2-yl)methyl]carbamoyl]amino)butyl]urea] | > 70 | A (<5) | < 150 | > 70 | – | – | –
7 | Cc1cc(S(=O)(=O)N[C@@H]2CCN(CCOCCNC(=O)NCCCCNC(=O)NCCOCCN3CC[C@@H](NS(=O)(=O)c4ccc(O[C@H]5c6cc(Cl)cc(C#N)c6C[C@@H]5N(C)C)c(C)c4)C3)C2)ccc1O[C@H]1c2cc(Cl)cc(C#N)c2C[C@@H]1N(C)C [Example 55, 3-(2-[2-[(3R)-3-[(4-[[(1S,2S)-6-Chloro-4-cyano-2-(dimethylamino)-2,3-dihydro-1H-inden-1-yl]oxy]-3-methylbenzene)sulfonamido]pyrrolidin-1-yl]ethoxy]ethyl)-1-(4-[[(2-[2-[(3R)-3-[(4-[[(1S,2S)-6-chloro-4-cyano-2-(dimethylamino)-2,3-dihydro-1H-inden-1-yl]oxy]-3-methylbenzene)sulfonamido]pyrrolidin-1-yl]ethoxy]ethyl)carbamoyl]amino]butyl)urea] | < 50 | B (5-10) | 150 to 200 | > 70 | – | – | –
8 | Cc1cc(S(=O)(=O)NCCOCCOCCNC(=O)NCCCCNC(=O)NCCOCCOCCNS(=O)(=O)c2ccc(O[C@H]3c4cc(Cl)cc(C)c4C[C@@H]3N3CCNCC3)c(C)c2)ccc1O[C@H]1c2cc(Cl)cc(C)c2C[C@@H]1N1CCNCC1 [Example 35, 3-[2-(2-[2-[(4-[[(1S,2S)-6-Chloro-4-methyl-2-(piperazin-1-yl)-2,3-dihydro-1H-inden-1-yl]oxy]-3-methylbenzene)sulfonamido]ethoxy]ethoxy)ethyl]-1-[4-([[2-(2-[2-[(4-[[(1S,2S)-6-chloro-4-methyl-2-(piperazin-1-yl)-2,3-dihydro-1H-inden-1-yl]oxy]-3-methylbenzene)sulfonamido]ethoxy]ethoxy)ethyl]carbamoyl]amino)butyl]urea; bis(trifluoroacetic acid)] | > 70 | A (<5) | 150 to 200 | > 70 | – | – | –
9 | Cc1cc(S(=O)(=O)NCCOCCOCCNC(=O)NCCCCNC(=O)NCCOCCOCCNS(=O)(=O)c2ccc(O[C@H]3c4cc(Cl)cc(C)c4C[C@@H]3N(C)C)c(C)c2)ccc1O[C@H]1c2cc(Cl)cc(C)c2C[C@@H]1N(C)C [Example 17, 3-[2-(2-[2-[(4-[[(1S,2S)-6-Chloro-2-(dimethylamino)-4-methyl-2,3-dihydro-1H-inden-1-yl]oxy]-3-methylbenzene)sulfonamido]ethoxy]ethoxy)ethyl]-1-[4-([[2-(2-[2-[(4-[[(1S,2S)-6-chloro-2-(dimethylamino)-4-methyl-2,3-dihydro-1H-inden-1-yl]oxy]-3-methylbenzene)sulfonamido]ethoxy]ethoxy)ethyl]carbamoyl]amino)butyl]urea] | 50 to 70 | B (5-10) | 150 to 200 | 50 to 70 | – | – | –
